Values quoted from earlier work, collected in patent publication US20240339215A1, “SYSTEM AND METHOD FOR DRUG SELECTION” (Board of Regents, The University of Texas System, priority 2023, published 2024).
Like-named read-outs stand apart in the source and are kept apart here.

Test system: breast cancer cell lines

Measured: synergistic effect of combination

Cc1cc([C@@H](C)Nc2ccccc2C(=O)O)c2nc(N3CCOCC3)cc(=O)n2c1 [AZD6482]
synergistic effects: combined with Linsitinib | combined with MK-1775 (Adavosertib) | combined with Sapitinib | combined with Vorinostat
